Test results reported in PMC12377313, “New 1E,1′E-hydrazine-bis(phenoxy-1,2,3-triazol-acetamide) derivatives as potent inhibitors against acetylcholinesterase, butyrylcholinesterase, and α-glucosidase” (RSC Advances, 2025).
Read-outs that look alike come from different tables or passages of the source.

Key:
AChE = AChE (Homo sapiens, UniProt P22303); test: biochemical; type: biochemical
BChE = BChE (Homo sapiens, UniProt P06276); test: biochemical
α-glucosidase = α-glucosidase (Saccharomyces cerevisiae, UniProt P53341); test: α-Glucosidase inhibition assay (p-NPG substrate); type: biochemical, yeast
Experimental: For this assay, the yeast form of α-glucosidase was used and p-nitrophenyl-α-D-glycopyranoside (p-NPG) was used as the substrate. The required solutions of these materials were prepared in a phosphate buffer solution (pH of 7.4 and a concentration of 5 mM). […] Subsequently, a mixture containing 200 μL of phosphate solution, 50 μL of the substrate, and 5–200 μL of the sample solution was pre-incubated at 35 °C for 3 min for α-glucosidase.

[1] = tested on: HEK293 embryonic kidney cells; test: MTT cell viability assay, HEK293; type: cell-based; settings: Homo sapiens, read-out: IC50 (μM) HEK-293
Experimental: The human neuroblastoma cell line SH-SY5Y (ATCC® CRL-2266™) and HEK293 (ATCC® CRL-1573™) human embryonic kidney cells were grown in Dulbecco's Modified Eagle Medium/Nutrient Mixture F-12 (DMEM/F-12) culture containing 10% heat-inactivated fetal bovine serum (FBS) and 1% antibiotics. The cells were incubated at 37 °C in a humidified atmosphere of 5% CO2. Both cell lines were provided by the American Type Culture Collection (ATCC).[30,31]
SH-SY5Y (ATCC® CRL-2266™) and HEK293 (ATCC® CRL-1573™) cells were seeded into 96-well plates at a density of 5 × 10^3 cells per well, and allowed to adhere overnight in a humidified incubator at 37 °C with 5% CO2. After attachment, the cells were treated with eight different concentrations of the target compounds (200, 100, 50, 25, 12.5, 6.25, 3.125, and 1.5625 μM), prepared via serial 1 : 2 dilutions, for 24 hours. Each concentration was tested in triplicate.
(§1) Following treatment, 10 μL of MTT solution (5 mg mL^−1 in PBS) was added to each well and incubated for an additional 4 hours under the same conditions. At the end of the incubation period, the medium containing MTT was carefully removed, and the formazan crystals formed by viable cells were solubilized in 100 μL of DMSO per well. The absorbance was measured at 570 nm using a microplate reader. The net absorbance (after blank subtraction) was used to calculate the percentage cell viability relative to the untreated control cells, which was set at 100%. All results were expressed as mean ± standard deviation (SD) of three independent experiments.[32,33]

[2] = tested on: SH-SY5Y neuroblastoma cells; test: MTT cell viability assay, SH-SY5Y; type: cell-based, human; settings: for Selectivity (selectivity index): HEK293 versus SH-SY5Y; for IC50: read-out: IC50 (μM) SH-SY5Y
Experimental: The cells were incubated at 37 °C in a humidified atmosphere of 5% CO2. Both cell lines were provided by the American Type Culture Collection (ATCC).[30,31]
Each concentration was tested in triplicate.
as §1

[3] = HEK293, 24 h treatment, MTT, mean ± SD (n = 3)
[4] = Homo sapiens, SH-SY5Y, 24 h, 24 h treatment, MTT, mean ± SD (n = 3)
[5] = 24 h treatment, MTT, mean ± SD (n = 3)
[6] = read-out: IC50 (nM) α-Glucosidase

Sequence of AChE (P22303 32-614): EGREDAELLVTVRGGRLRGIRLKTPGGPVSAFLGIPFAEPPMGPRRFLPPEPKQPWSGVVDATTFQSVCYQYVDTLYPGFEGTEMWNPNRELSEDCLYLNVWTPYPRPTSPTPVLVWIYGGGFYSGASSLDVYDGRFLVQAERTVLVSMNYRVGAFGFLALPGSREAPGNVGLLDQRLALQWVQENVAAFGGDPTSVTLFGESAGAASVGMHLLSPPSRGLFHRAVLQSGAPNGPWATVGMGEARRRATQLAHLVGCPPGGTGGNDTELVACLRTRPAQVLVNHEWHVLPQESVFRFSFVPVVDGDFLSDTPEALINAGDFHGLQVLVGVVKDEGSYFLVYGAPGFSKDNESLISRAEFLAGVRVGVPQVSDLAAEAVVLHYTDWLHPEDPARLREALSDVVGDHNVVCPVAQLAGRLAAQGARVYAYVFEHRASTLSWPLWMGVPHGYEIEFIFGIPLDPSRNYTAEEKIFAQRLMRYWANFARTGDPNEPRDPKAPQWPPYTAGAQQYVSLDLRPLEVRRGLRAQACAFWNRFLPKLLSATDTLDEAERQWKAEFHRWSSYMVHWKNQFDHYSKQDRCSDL
Sequence of α-glucosidase (P53341 whole entry): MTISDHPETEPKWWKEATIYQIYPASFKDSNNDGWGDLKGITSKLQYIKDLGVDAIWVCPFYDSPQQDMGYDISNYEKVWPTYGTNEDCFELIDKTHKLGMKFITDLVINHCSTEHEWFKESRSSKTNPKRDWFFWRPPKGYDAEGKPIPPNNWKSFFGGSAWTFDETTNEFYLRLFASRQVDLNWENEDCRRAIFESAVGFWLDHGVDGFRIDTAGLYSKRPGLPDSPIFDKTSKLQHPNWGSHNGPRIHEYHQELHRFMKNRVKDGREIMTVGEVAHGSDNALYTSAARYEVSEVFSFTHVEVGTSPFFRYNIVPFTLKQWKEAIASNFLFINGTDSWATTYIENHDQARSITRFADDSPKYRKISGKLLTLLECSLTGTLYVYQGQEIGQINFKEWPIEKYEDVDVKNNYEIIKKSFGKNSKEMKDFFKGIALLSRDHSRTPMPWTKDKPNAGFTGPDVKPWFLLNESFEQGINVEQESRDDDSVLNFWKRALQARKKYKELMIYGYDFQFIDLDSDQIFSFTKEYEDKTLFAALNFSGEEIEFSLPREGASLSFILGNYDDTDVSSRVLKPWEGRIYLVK
Sequence of BChE (P06276 29-602): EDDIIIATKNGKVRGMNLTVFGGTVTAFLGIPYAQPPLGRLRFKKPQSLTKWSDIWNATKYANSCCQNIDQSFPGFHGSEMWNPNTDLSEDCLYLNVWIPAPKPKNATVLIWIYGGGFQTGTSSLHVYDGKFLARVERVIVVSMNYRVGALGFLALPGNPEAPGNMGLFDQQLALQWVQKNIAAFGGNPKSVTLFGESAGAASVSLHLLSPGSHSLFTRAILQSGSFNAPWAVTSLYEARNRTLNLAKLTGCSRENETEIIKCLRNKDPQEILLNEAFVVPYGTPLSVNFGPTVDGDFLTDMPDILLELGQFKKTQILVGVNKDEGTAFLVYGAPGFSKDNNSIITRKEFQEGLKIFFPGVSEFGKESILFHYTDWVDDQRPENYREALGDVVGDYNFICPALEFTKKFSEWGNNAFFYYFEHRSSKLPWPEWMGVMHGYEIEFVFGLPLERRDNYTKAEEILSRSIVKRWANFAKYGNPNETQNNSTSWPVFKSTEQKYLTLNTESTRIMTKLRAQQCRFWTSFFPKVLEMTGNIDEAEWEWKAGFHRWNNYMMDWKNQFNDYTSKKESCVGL

`Cc1ccccc1NC(=O)Cn1cc(COc2ccc(/C=N/N=C/c3ccc(OCc4cn(CC(=O)Nc5ccccc5C)nn4)cc3)cc2)nn1` [Compound 10a, 2,2′-((((((1E,1′E)-Hydrazine-1,2-diylidenebis(methaneylylidene))bis(4,1-phenylene))bis(oxy))bis(methylene))bis(1H-1,2,3-triazole-4,1-diyl))bis(N-(o-tolyl)acetamide)] gave an IC50 (AChE; read-out: IC50 (nM) AChE) of 163 ± 5.38 nM, an IC50 (BChE) of 18.4 ± 3.09 nM and an IC50 (α-glucosidase) of 43.1 ± 8.21 nM. The IC50 [1, 3] was 78.21 ± 0.42 µM, the “Selectivity (selectivity index)” value [2] was 9.5 and the IC50 [2, 4] was 8.22 ± 0.12 µM.
For `Cc1cccc(NC(=O)Cn2cc(COc3ccc(/C=N/N=C/c4ccc(OCc5cn(CC(=O)Nc6cccc(C)c6)nn5)cc4)cc3)nn2)c1` [Compound 10b, 2,2′-((((((1E,1′E)-Hydrazine-1,2-diylidenebis(methaneylylidene))bis(4,1-phenylene))bis(oxy))bis(methylene))bis(1H-1,2,3-triazole-4,1-diyl))bis(N-(m-tolyl)acetamide)], the IC50 (AChE; read-out: IC50 (nM) AChE) was 167 ± 9.46 nM, the IC50 (BChE) was 18.3 ± 4.84 nM and the IC50 (α-glucosidase) was 62.1 ± 5.43 nM. For the same compound, the IC50 [1, 3] was 43.42 ± 0.36 µM, the “Selectivity (selectivity index)” value [2] was 2.7 and the IC50 [2, 4] was 15.8 ± 0.2 µM.
`Cc1ccc(NC(=O)Cn2cc(COc3ccc(/C=N/N=C/c4ccc(OCc5cn(CC(=O)Nc6ccc(C)cc6)nn5)cc4)cc3)nn2)cc1` [Compound 10c, 2,2′-((((((1E,1′E)-Hydrazine-1,2-diylidenebis(methaneylylidene))bis(4,1-phenylene))bis(oxy))bis(methylene))bis(1H-1,2,3-triazole-4,1-diyl))bis(N-(p-tolyl)acetamide)] showed an IC50 (AChE; read-out: IC50 (nM) AChE) of 164 ± 9.7 nM, an IC50 (BChE) of 17.1 ± 3.21 nM and an IC50 (α-glucosidase) of 67 ± 7.88 nM. The IC50 [1, 3] was 46.91 ± 0.32 µM, the IC50 [2, 5] was 11.9 ± 0.2 µM and the “Selectivity (selectivity index)” value [2] was 3.9. For the same compound, the IC50 [2, 4] was 12 to 16 µM.
With `Cc1cccc(NC(=O)Cn2cc(COc3ccc(/C=N/N=C/c4ccc(OCc5cn(CC(=O)Nc6cccc(C)c6C)nn5)cc4)cc3)nn2)c1C` [Compound 10d, 2,2′-((((((1E,1′E)-Hydrazine-1,2-diylidenebis(methaneylylidene))bis(4,1-phenylene))bis(oxy))bis(methylene))bis(1H-1,2,3-triazole-4,1-diyl))bis(N-(2,3-dimethylphenyl)acetamide)] the IC50 (AChE; read-out: IC50 (nM) AChE) was 131 ± 7.23 nM, the IC50 (BChE) was 14.9 ± 2.08 nM and the IC50 (α-glucosidase) was 71.2 ± 8.14 nM. The IC50 [1, 3] was 75.22 ± 0.35 µM, the IC50 [2, 5] was 16.4 ± 0.21 µM and the “Selectivity (selectivity index)” value [2] was 4.6. It also gave an IC50 [2, 4] of 12 to 16 µM.
In the case of `COc1ccc(NC(=O)Cn2cc(COc3ccc(/C=N/N=C/c4ccc(OCc5cn(CC(=O)Nc6ccc(OC)cc6OC)nn5)cc4)cc3)nn2)c(OC)c1` [Compound 10e, 2,2′-((((((1E,1′E)-Hydrazine-1,2-diylidenebis(methaneylylidene))bis(4,1-phenylene))bis(oxy))bis(methylene))bis(1H-1,2,3-triazole-4,1-diyl))bis(N-(2,4-dimethoxyphenyl)acetamide)], the IC50 (AChE; read-out: IC50 (nM) AChE) is reported as 140 ± 9.43 nM, the IC50 (BChE) is reported as 16.3 ± 2.09 nM and the IC50 (α-glucosidase) is reported as 58.5 ± 4.27 nM. The IC50 [1, 3] was 68.95 ± 0.41 µM, the IC50 [2, 5] was 33.19 ± 0.25 µM and the “Selectivity (selectivity index)” value [2] was 2.1. It also gave an IC50 [2, 4] of over 30 µM.
Compound `CCc1ccc(NC(=O)Cn2cc(COc3ccc(/C=N/N=C/c4ccc(OCc5cn(CC(=O)Nc6ccc(CC)cc6)nn5)cc4)cc3)nn2)cc1` [Compound 10f, 2,2′-((((((1E,1′E)-Hydrazine-1,2-diylidenebis(methaneylylidene))bis(4,1-phenylene))bis(oxy))bis(methylene))bis(1H-1,2,3-triazole-4,1-diyl))bis(N-(4-ethylphenyl)acetamide)] has an IC50 (AChE; read-out: IC50 (nM) AChE) of 159 ± 6.17 nM, an IC50 (BChE) of 17 ± 5.46 nM and an IC50 (α-glucosidase) of 66.4 ± 4.43 nM. For the same compound, the IC50 [1, 3] was 33.2 ± 0.55 µM, the “Selectivity (selectivity index)” value [2] was 4.5 and the IC50 [2, 4] was 7.33 ± 0.11 µM.
For `O=C(Cn1cc(COc2ccc(/C=N/N=C/c3ccc(OCc4cn(CC(=O)Nc5ccccc5F)nn4)cc3)cc2)nn1)Nc1ccccc1F` [Compound 10g, 2,2′-((((((1E,1′E)-Hydrazine-1,2-diylidenebis(methaneylylidene))bis(4,1-phenylene))bis(oxy))bis(methylene))bis(1H-1,2,3-triazole-4,1-diyl))bis(N-(2-fluorophenyl)acetamide)], the IC50 (AChE; read-out: IC50 (nM) AChE) was 112 ± 9.6 nM, the IC50 (BChE) was 12.4 ± 3.21 nM and the IC50 (α-glucosidase) was 56.7 ± 6.34 nM. The IC50 [1, 3] was 86.45 ± 0.52 µM, the “Selectivity (selectivity index)” value [2] was 6.7 and the IC50 [2, 4] was 12.9 ± 0.13 µM.
Work on `O=C(Cn1cc(COc2ccc(/C=N/N=C/c3ccc(OCc4cn(CC(=O)Nc5cccc(Cl)c5)nn4)cc3)cc2)nn1)Nc1cccc(Cl)c1` [Compound 10i, 2,2′-((((((1E,1′E)-Hydrazine-1,2-diylidenebis(methaneylylidene))bis(4,1-phenylene))bis(oxy))bis(methylene))bis(1H-1,2,3-triazole-4,1-diyl))bis(N-(3-chlorophenyl)acetamide)] yielded an IC50 (AChE; read-out: IC50 (nM) AChE) of 164 ± 9.54 nM, an IC50 (BChE) of 15.3 ± 3.16 nM and an IC50 (α-glucosidase) of 45.8 ± 4.71 nM. The IC50 [1, 3] was 37.4 ± 0.55 µM, the “Selectivity (selectivity index)” value [2] was 8.8 and the IC50 [2, 4] was 4.26 ± 0.08 µM.
In the case of `O=C(Cn1cc(COc2ccc(/C=N/N=C/c3ccc(OCc4cn(CC(=O)Nc5ccc(Cl)cc5)nn4)cc3)cc2)nn1)Nc1ccc(Cl)cc1` [Compound 10j, 2,2′-((((((1E,1′E)-Hydrazine-1,2-diylidenebis(methaneylylidene))bis(4,1-phenylene))bis(oxy))bis(methylene))bis(1H-1,2,3-triazole-4,1-diyl))bis(N-(4-chlorophenyl)acetamide)], the IC50 (AChE; read-out: IC50 (nM) AChE) is reported as 145 ± 6.23 nM, the “fold diminished anti-AChE inhibitory activity relative to 10k” value (AChE; removal of 2-chloro substituent, versus 10k) is reported as 1.3 fold and the IC50 (BChE) is reported as 16.4 ± 4.43 nM. For the same compound, the IC50 (α-glucosidase) was 34.3 ± 3.49 nM, the “folds more potent than the standard inhibitor acarbose against α-glucosidase” value (α-glucosidase; relative to acarbose) was 1.7 fold and the IC50 [1, 3] was 67.43 ± 0.47 µM. For the same compound, the “Selectivity (selectivity index)” value [2] was 10.0 and the IC50 [2, 4] was 6.75 ± 0.18 µM.
`O=C(Cn1cc(COc2ccc(/C=N/N=C/c3ccc(OCc4cn(CC(=O)Nc5ccc(Br)cc5)nn4)cc3)cc2)nn1)Nc1ccc(Br)cc1` [Compound 10l, 2,2′-((((((1E,1′E)-Hydrazine-1,2-diylidenebis(methaneylylidene))bis(4,1-phenylene))bis(oxy))bis(methylene))bis(1H-1,2,3-triazole-4,1-diyl))bis(N-(4-bromophenyl)acetamide)] was tested, and the IC50 (AChE; read-out: IC50 (nM) AChE) was 148 ± 8.23 nM, the IC50 (BChE) was 16.4 ± 4.74 nM and the IC50 (α-glucosidase) was 39.1 ± 5.1 nM. For the same compound, the IC50 [1, 3] was 92.86 ± 0.71 µM, the IC50 [2, 5] was 42.15 ± 0.37 µM and the “Selectivity (selectivity index)” value [2] was 2.2. The IC50 [2, 4] was over 30 µM.
Work on `O=C(Cn1cc(COc2ccc(/C=N/N=C/c3ccc(OCc4cn(CC(=O)Nc5ccccc5[N+](=O)[O-])nn4)cc3)cc2)nn1)Nc1ccccc1[N+](=O)[O-]` [Compound 10m, 2,2′-((((((1E,1′E)-Hydrazine-1,2-diylidenebis(methaneylylidene))bis(4,1-phenylene))bis(oxy))bis(methylene))bis(1H-1,2,3-triazole-4,1-diyl))bis(N-(2-nitrophenyl)acetamide)] yielded an IC50 (AChE) of 157 ± 8.65 nM, an IC50 (BChE) of 16.9 ± 4.83 nM and an IC50 (α-glucosidase; [6]) of 36.6 ± 4.86 nM. The IC50 ([1]; HEK293, 24 h) was 46.45 ± 0.45 µM, the “Selectivity (selectivity index)” value [2] was 1.6 and the IC50 ([2]; Homo sapiens, SH-SY5Y, 24 h) was 28.33 ± 0.26 µM.
Compound `O=C(Cn1cc(COc2ccc(/C=N/N=C/c3ccc(OCc4cn(CC(=O)Nc5ccc([N+](=O)[O-])cc5)nn4)cc3)cc2)nn1)Nc1ccc([N+](=O)[O-])cc1` [Compound 10n, 2,2′-((((((1E,1′E)-Hydrazine-1,2-diylidenebis(methaneylylidene))bis(4,1-phenylene))bis(oxy))bis(methylene))bis(1H-1,2,3-triazole-4,1-diyl))bis(N-(4-nitrophenyl)acetamide)] has an IC50 (AChE) of 173 ± 9.71 nM, an IC50 (BChE) of 13.9 ± 4.3 nM and an IC50 (α-glucosidase; [6]) of 65.1 ± 6.01 nM. The IC50 ([1]; HEK293, 24 h) was 38.42 ± 0.19 µM, the “Selectivity (selectivity index)” value [2] was 7.4 and the IC50 ([2]; Homo sapiens, SH-SY5Y, 24 h) was 5.22 ± 0.12 µM.
With `CNC(=O)c1cc(Oc2ccc(NC(=O)Nc3ccc(Cl)c(C(F)(F)F)c3)cc2)ccn1` [Sorafenib, reference compound] the IC50 [1, 3] was 16.22 ± 0.14 µM and the IC50 [2, 4] was 3.88 ± 0.12 µM.
